Measurements reported in paper PMC7369893, “Antimicrobial Peptides Display Strong Synergy with Vancomycin Against Vancomycin-Resistant E. faecium, S. aureus, and Wild-Type E. coli” (International Journal of Molecular Sciences, 2020).
In brackets after ≈: the same amount, converted by molar mass. Read-outs that look alike come from different tables or passages of the source. Residues, ends and D or L forms follow the SMILES beside them.

How the values were obtained:
[1] = tested on: E. faecium BCRC 15B0132 (VRE); assay: microbe, parasite or virus in culture; assay type: cell-based, Enterococcus faecium
Procedure: (§1) The antibacterial activities of peptides were determined by the standard broth microdilution method according to the guidelines of the Clinical and Laboratory Standards Institute (CLSI). Briefly, E. coli ATCC 25922 were incubated in MHB, and E. faecium BCRC 15B0132, VISA and VRSA strains were incubated in TSB overnight at 37 °C. The cell cultures were regrown to the mid-log phase and subsequently diluted to a final concentration of 5 × 10^5 CFU/mL. The 1 µL peptides or antibiotic were loaded into each well at the final concentration of 64, 32, 16, 8, 4, 2, 1, and 0.5 µg/mL, then loaded 99 µL diluted microbes into each well of polypropylene 96-well plate. After 16 h of incubation at 37 °C, the turbidity at OD600 was measured by the microplate reader. The minimal inhibitory concentration (MIC) value was defined as the lowest concentration of peptide or antibiotic, which inhibited the 90% visible growth of bacteria. All experiments were repeated three times independently.

[2] = tested on: Vancomycin-intermediate S. aureus 01 (VISA01); assay: microbe, parasite or virus in culture; assay type: cell-based, Staphylococcus aureus
Procedure: as §1

[3] = tested on: Vancomycin-intermediate S. aureus 02 (VISA02); assay: microbe, parasite or virus in culture; assay type: cell-based, Staphylococcus aureus
Procedure: as §1

[4] = tested on: Vancomycin-intermediate S. aureus 03 (VISA03); assay: microbe, parasite or virus in culture; assay type: cell-based, Staphylococcus aureus
Procedure: as §1

[5] = tested on: Vancomycin-resistant S. aureus 01 (VRSA01); assay: microbe, parasite or virus in culture; assay type: cell-based, Staphylococcus aureus; conditions: 16 h
Procedure: (§2) For the purpose of inducing vancomycin-resistant Staphylococcus aureus (VRSA), the VISA01, VISA02, and VISA03 bacteria were incubated overnight in culture medium, and transferring 50 µL of bacteria to 5 mL of fresh medium containing 2 μg/mL of vancomycin then incubated overnight. The bacteria were transferred to new tube with doubling vancomycin concentration and then incubated overnight again. The concentration of vancomycin during serial passage was 2, 4, 8, 16, and 32 µg/mL. The procedure was repeated until meeting the final concentration of 32 µg/mL. After serial passage, the cell resistance was confirmed by using an MIC assay.
as §1

[6] = tested on: Vancomycin-resistant S. aureus 02 (VRSA02); assay: microbe, parasite or virus in culture; assay type: cell-based, Staphylococcus aureus; conditions: 16 h
Procedure: as §2, §1

[7] = tested on: Vancomycin-resistant S. aureus 03 (VRSA03); assay: microbe, parasite or virus in culture; assay type: cell-based, Staphylococcus aureus; conditions: 16 h
Procedure: as §2, §1

E. coli ATCC 25922 [8] = assay: microbe, parasite or virus in culture; assay type: cell-based, Escherichia coli
Procedure: as §1

[9] = tested on: VRE, VISA, VRSA, and E. coli strains; assay: microbe, parasite or virus in culture; assay type: cell-based; conditions: for MICs against these bacterial strains: 16 h; for MIC: Staphylococcus aureus
Procedure: as §1

[10] = tested on: VRE, VISA, VRSA and E. coli strains; assay: Checkerboard assay, summary statements of the text over the strain panel; assay type: cell-based; conditions: peptide at ¼ ×MIC combined with vancomycin, all strains studied
Procedure: The synergistic effects of peptides in combination with vancomycin were investigated by checkerboard assay with slight modification. The peptides were fixed concentration at ¼ × MIC, then in combination with antibiotics at various concentrations in each well of 96-well plate. Then the peptide/antibiotic were mixed with inoculum (5 × 10^5 CFU/mL) and incubated at 37 °C for 16 h. The fractional inhibitory concentration (FIC) index was calculated as follows: FIC index = (MIC of drug A in combination/MIC of drug A alone) + (MIC of drug B in combination/MIC of drug B alone). An FIC index of ≤ 0.5 was defined as synergy, indifference was defined as an FIC index of 0.5 < FICI ≤ 4, antagonism was defined as an FIC index of > 4. The experiments were performed in triplicate.

[11] = tested on: E. faecium BCRC 15B0132 (VRE); assay: Time killing assay; assay type: cell-based, Enterococcus faecium; conditions: 5 × 10^5 CFU/mL, 1 × MIC, 0.5-24 h, 37 °C, triplicate
Procedure: (§3) The bactericidal activities of vancomycin, P-113, Phe-P-113, Bip-P-113, Dip-P-113, and Nal-P-113 against E. faecium BCRC 15B0132 (VRE) and E. coli ATCC 25922 were assessed by the time-kill analysis. The cells were grown overnight in TSB or MHB at 37 °C with shaking, and then fresh TSB or MHB was inoculated for growth to mid-logarithmic phase. Bacteria (5 × 10^5 CFU/mL) were treated with 1 × MIC vancomycin, P-113, Phe-P-113, Bip-P-113, Dip-P-113, and Nal-P-113 for 0.5, 1, 2, 4, 6, 10, and 24 h at 37 °C. Bacteria without peptides and vancomycin served as a control. Aliquots were removed at each time points, and 10-fold serial dilutions of the aliquot were plated onto the Müller-Hinton agar. The numbers of CFU were counted after 24 h of incubation at 37 °C. The detection limit for the colony counts was 2log10 CFU/mL.

E. coli ATCC 25922 [12] = assay: Time killing assay; assay type: cell-based, Escherichia coli; conditions: E. coli ATCC 25922, 5 × 10^5 CFU/mL, 1 × MIC, 0.5-24 h, 37 °C; triplicate
Procedure: as §3

E. faecium BCRC 15B0132 = assay: Uptake of BODIPY-labeled vancomycin, confocal laser scanning microscopy; assay type: cell-based, Enterococcus faecium; conditions: VRE 10^7 CFU/mL, 0.5 ×MIC peptide 30 min at 37 °C, then BODIPY-labeled vancomycin (2 μg/mL) 30 min; mean fluorescence intensity
Procedure: (§4) The fluorescence experiments were performed with slight modification as described previously. Briefly, the bacteria (10^7 CFU/mL) were incubated with 0.5 ×MIC antimicrobial peptides for 30 min and then treated with BODIPY-labeled vancomycin (2 μg/mL) for 30 min. Samples treated with BODIPY-labeled vancomycin only served as a control. After incubation, bacteria were centrifuged at 8000× g for 5 min, washed three times with PBS to remove unbinding fluorescence dye, and resuspended by PBS. The resuspended solution were loaded on the glass slides (Polysine™, Thermo Fisher Scientific, Waltham, MA, USA) and visualized under confocal laser scanning microscope (LSM 510 META, Carl Zeiss, Jena, Thüringen, Germany) equipped with a 64× oil objective lens (Carl Zeiss, Jena, Thüringen, Germany).

E. coli ATCC 25922 [13] = assay: as above; assay type: cell-based, Escherichia coli; conditions: E. coli 10^7 CFU/mL, 0.5 ×MIC peptide 30 min at 37 °C, then BODIPY-labeled vancomycin (2 μg/mL) 30 min; mean fluorescence intensity
Procedure: as §4

[14] = POPC:POPG (3:1, mol/mol) and POPC:LPS (4:1, mol/mol) LUVs; cited from earlier work
Text: Dathe and coauthors used POPC:LPS as model prokaryotic membranes to study peptide activity against E. coli and the role of LPS [20]. Previously, we have evaluated the membrane-permeability of P-113 and its derivatives by measuring the release of calcein from various phospholipid vesicles such as POPC:POPG (3:1, mol/mol) LUVs (mimic the anionic bacterial membrane) and POPC:LPS (4:1, mol/mol) LUVs (served as surrogates of Gram-negative bacterial membranes that contain LPS). […] Nal- ...

[15] = Vancomycin-intermediate 01 (VISA01, 16 h)
[16] = Vancomycin-intermediate 02 (VISA02, 16 h)
[17] = Vancomycin-intermediate 03 (VISA03, 16 h)
[18] = VRSA01 (induced from VISA01 by serial passage), CLSI broth microdilution, TSB, 5 × 10^5 CFU/mL, 37 °C, triplicate
[19] = VRSA02 (induced from VISA02 by serial passage), CLSI broth microdilution, TSB, 5 × 10^5 CFU/mL, 37 °C, triplicate
[20] = VRSA03 (induced from VISA03 by serial passage), CLSI broth microdilution, TSB, 5 × 10^5 CFU/mL, 37 °C, triplicate

Structure (SMILES) | MIC ([1]; BCRC 15, 16 h) [µg/mL] | MIC [2, 15] [µg/mL] | MIC [3, 16] [µg/mL] | MIC [4, 17] [µg/mL] | MIC [5, 18] [µg/mL] | MIC [6, 19] [µg/mL] | MIC [7, 20] [µg/mL] | MIC (E. coli ATCC 25922 [8]; ATCC 25922, 16 h) [µg/mL] | MICs against these bacterial strains [9] [µg/mL] | synergy with vancomycin (interpretation of FICI) [10] | killing kinetics [11] | killing kinetics (E. coli ATCC 25922 [12]) | entry of BODIPY-labeled vancomycin into the bacteria (rank order) (E. faecium BCRC 15B0132) | entry of BODIPY-labeled vancomycin into the bacteria (rank order) (E. coli ATCC 25922 [13]) | calcein leakage from LUVs [14] | other results
CC(=O)N[C@@H](C)C(=O)N[C@@H](CCCCN)C(=O)N[C@@H](CCCNC(=N)N)C(=O)N[C@@H](Cc1ccccc1)C(=O)N[C@@H](Cc1ccccc1)C(=O)NCC(=O)N[C@@H](Cc1ccc(O)cc1)C(=O)N[C@@H](CCCCN)C(=O)N[C@@H](CCCNC(=N)N)C(=O)N[C@@H](CCCCN)C(=O)N[C@@H](Cc1ccccc1)C(=O)N[C@@H](Cc1ccccc1)C(N)=O [Phe-P-113] (Ac-AKRFFGYKRKFF-NH2) | >64 | >64 | >64 | >64 | >64 | >64 | >64 | >64 | > 64 | no synergy | slower or limited killing kinetics | limited bactericidal activity | Bip-P-113 = Nal-P-113 > Dip-P-113 > Phe-P-113 = P-113 | Bip-P-113 > Nal-P-113 > Dip-P-113 > Phe-P-113 = P-113 | only weak abilities in causing calcein leakage | –
CN[C@H](CC(C)C)C(=O)N[C@H]1C(=O)N[C@@H](CC(N)=O)C(=O)N[C@H]2C(=O)N[C@H]3C(=O)N[C@H](C(=O)N[C@H](C(=O)O)c4cc(O)cc(O)c4-c4cc3ccc4O)[C@H](O)c3ccc(c(Cl)c3)Oc3cc2cc(c3O[C@@H]2O[C@H](CO)[C@@H](O)[C@H](O)[C@H]2O[C@H]2C[C@](C)(N)[C@H](O)[C@H](C)O2)Oc2ccc(cc2Cl)[C@H]1O [Vancomycin] | – | – | – | – | – | – | – | – | – | – | slower or limited killing kinetics | limited bactericidal activity | – | – | – | MIC ([1]; E. faecium BCRC 15B0132 (VRE), CLSI broth microdilution, TSB, 5 × 10^5 CFU/mL, 16 h, 37 °C, OD600, 90% growth inhibition, triplicate): 64 µg/mL (≈ 44.2 µM); MIC ([1]; Enterococcus faecium, VRE, 16 h): 64 µg/mL (≈ 44.2 µM); MIC ([2]; Staphylococcus aureus, 16 h): 4 µg/mL (≈ 2.76 µM); MIC ([3]; Staphylococcus aureus, 16 h): 4 µg/mL (≈ 2.76 µM); MIC ([4]; Staphylococcus aureus, 16 h): 4 µg/mL (≈ 2.76 µM); MIC ([5]; Staphylococcus aureus): 32 µg/mL (≈ 22.1 µM); MIC ([6]; Staphylococcus aureus): 32 µg/mL (≈ 22.1 µM); MIC ([7]; Staphylococcus aureus): 32 µg/mL (≈ 22.1 µM); MIC (E. coli ATCC 25922 [8]; E. coli ATCC 25922, CLSI broth microdilution, MHB, 5 × 10^5 CFU/mL, 16 h, 37 °C, OD600, 90% growth inhibition, triplicate): > 64 µg/mL; MIC (E. coli ATCC 25922 [8]; Escherichia coli, ATCC25922, 16 h): > 64 µg/mL; MIC ([9]; read-out: MIC against VISA strains): 4 µg/mL (≈ 2.76 µM); MIC ([9]; read-out: MIC against VRSA strains): 32 µg/mL (≈ 22.1 µM)
CC(=O)N[C@@H](C)C(=O)N[C@@H](CCCCN)C(=O)N[C@@H](CCCNC(=N)N)C(=O)N[C@@H](Cc1c[nH]cn1)C(=O)N[C@@H](Cc1c[nH]cn1)C(=O)NCC(=O)N[C@@H](Cc1ccc(O)cc1)C(=O)N[C@@H](CCCCN)C(=O)N[C@@H](CCCNC(=N)N)C(=O)N[C@@H](CCCCN)C(=O)N[C@@H](Cc1ccccc1)C(=O)N[C@@H](Cc1c[nH]cn1)C(N)=O [P-113] (Ac-AKRHHGYKRKFH-NH2) | >64 | >64 | >64 | >64 | >64 | >64 | >64 | >64 | > 64 | no synergy | slower or limited killing kinetics | limited bactericidal activity | Bip-P-113 = Nal-P-113 > Dip-P-113 > Phe-P-113 = P-113 | Bip-P-113 > Nal-P-113 > Dip-P-113 > Phe-P-113 = P-113 | only weak abilities in causing calcein leakage | –
